Measured values taken from patent US20020160066A1, “Composition and methods containing an antimicrobial essential oil extracted from Coleus forskohlii” (priority 2001, published 2002).

Tests used:
E. coli = assay: Second study, disk clearance zone, E. coli; format: cell-based; details: Escherichia coli; 30 μg/disk
Staphylococcus aureus = assay: Second study, disk clearance zone, Staphylococcus aureus; format: cell-based; details: 30 μg/disk
From the text: Determination of the antimicrobial activity of the composition. The sensitivity of Propionbacterium acnes a microorganism associated with acne and other skin infections (Nishijima, et al. (2000)), Staphylococcus aureus a bacterial strain found in infected wounds and skin eruptions including acne (Nishijima, et al. 1994)), Staphylococcus epidermidis a bacterial strain occurring in a variety of opportunistic bacterial skin infections and in acne (Nishijima, S. et al. (2000)) and Streptococcus mutans, a bacterial strain associated with the progression of dental caries (Sanchez-Perez, L. et al. (2001)), Candida albican, and Streptococcus epidermidis; to Coleus forskohlii oil using disk diffusion methodology was determined. One strain each of Propionbacterium acnes (ATCC 11827), Staphylococcus aureus (ATCC 29213), Streptococcus mutans (ATCC 25175), and Staphylococcus epidermidis (ATCC 14990) Candida albicans (ATCC 11006) and Streptococcus epidermidis (ATCC 14990) were obtained from ATCC. Propionbacterium acnes culture were grown in Reinforced Clostridia media under anaerobic conditions at 37° C. for 24 hours. Staphylococcus aureus, Streptococcus mutans and Staphylococcus epidermidis cultures were cultured in Trypticase Soy Broth under aerobic conditions at 37° C. for 24 hours. […] Inhibition zones were measured to the closest one tenth of one millimeter using a caliper. […]

Q: O=C(N[C@H](CO)[C@H](O)c1ccc([N+](=O)[O-])cc1)C(Cl)Cl [Chloramphenicol] was tested. Which zone of inhibition at 30 µg/disc (E. coli) did it give?
A: 34 mm

Q: What about the zone of inhibition at 30 µg/disc (Staphylococcus aureus) of the same molecule?
A: 20 mm
